Columns and labels:
[1] = test system: mouse thoracic aorta ring; test: Vascular reactivity of phenylephrine-preconstricted thoracic aorta rings; conditions: pre-constricted with phenylephrine, 10^−9 to 10^−5 M
Experimental: Thoracic aortas were quickly removed from 8 to 10-week wild type (C57 BL6) mice, cut into 3 mm rings. After pre-constriction with phenylephrine (1 μM), increasing concentrations of acetylcholine or MRS2339 were added in a cumulative fashion to achieve a concentration-response curve. The % relaxation was determined as % decrease in ring tension (gram) compared to the tension before the addition of acetylcholine or MRS2339. Data were shown as mean±SEM.

[2] = test system: intact WT mouse hearts; test: Cardiac function in intact WT mouse heart preparation
Experimental: Following injection of heparin via tail vein (500 U/kg, iv) and anesthetization with nembutal (125 mg/kg for rats and 150 mg/kg for mice, ip) intraperitoneally, heart with all major vessels and lungs attached were excised. The aorta was then cannulated with a 20-gauge catheter, positioned about 2 mm above the coronary ostia. For the Langendorff method, a water-filled latex balloon (size #3) was inserted into the lumen of the left ventricle via the left atrium. The distal end of the balloon attached catheter was connected to a pressure transducer for measurement of intraventricular pressure and ±dP/dt. The balloon was inflated to a constantly held diastolic pressure of 5-7 mmHg. […]
For the working heart model, a column of KHS buffer produced a constant hydrostatic pressure of 65 mmHg (for rat) or 55 mmHg (for mice). […] Aortic flow was the amount of perfusate exiting the aortic cannula measured in […]. […]
The pressure recordings were channeled from amplifiers which had been pre-calibrated by a transducer simulator/calibrator (Ken Scientific Corp., Litchfield, Conn.). […] Data were analyzed by computer software (WorkBench for Windows+, Kent Scientific Corp) designed for an IBM-compatible computer (Dell). […] Data obtained with and without drug were analyzed by paired t test for possible statistically significant differences. […]

## Nc1nc(Cl)nc2c1ncn2C1[C@H]2C[C@@]2(COP(=O)(O)O)[C@@H](O)[C@H]1O (stereo partly drawn) [MRS2339, (1′S,2′R,3′S,4′R,5′S)-4-(6-amino-2-chloro-9H-purin-9-yl)-1-[phosphoryloxymethyl]bicyclo[3.1.0]hexane-2,3-diol]
[1]
  Relaxation of aorta ring segments: did not induce relaxation
[2]
  +dP/dt: increased

Source: patent US8410078B2, “Composition and methods to treat cardiac diseases” (University of Connecticut, priority 2006, dated 2013)
